pKi: −log10 of the molar value.
Key:
Assay type in all cases: biochemical
ROCK I (AA 6-553) = biological target: T1, ROCK I (AA 6-553) (Homo sapiens, UniProt Q13464); experiment: ROCK inhibition assay, standard coupled enzyme system ("Enzyme"); details: enzyme-linked assay
T1 construct: ROCK I (AA 6-553)
In short: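 ROCK I (AA 6-553) at 45 nM and 30 °C with 45 μM ATP and 200 μM peptide, in 100 mM HEPES pH 7.5, 10 mM MgCl2, 25 mM NaCl, 2 mM DTT, 1.5% DMSO. ADP output read by a PK/LDH coupled system: 2.5 mM PEP, 350 μM NADH, 30 μg/ml PK, 10 μg/ml LDH.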

Aurora-B = Aurora-B (Homo sapiens, UniProt Q96GD4); experiment: Aurora-B inhibition assay, radioactive assay; details: average Ki if more than one value determined
Sequence of Aurora-B (Q96GD4 whole entry): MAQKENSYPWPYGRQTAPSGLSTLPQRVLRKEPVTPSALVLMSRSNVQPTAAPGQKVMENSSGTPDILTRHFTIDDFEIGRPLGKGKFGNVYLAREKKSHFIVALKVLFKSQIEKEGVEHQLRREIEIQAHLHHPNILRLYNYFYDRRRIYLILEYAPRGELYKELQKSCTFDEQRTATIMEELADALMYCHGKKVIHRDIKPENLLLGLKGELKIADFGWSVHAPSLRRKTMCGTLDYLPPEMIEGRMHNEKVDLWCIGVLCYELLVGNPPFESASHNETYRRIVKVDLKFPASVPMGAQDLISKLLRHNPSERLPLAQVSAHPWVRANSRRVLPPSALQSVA
Protocol: Compounds were screened for their ability to inhibit JAK3 using a standard radioactive enzyme assay. 1.5 μL/well of a DMSO stock containing serial dilutions of a compound of the present invention (concentrations ranging from 667 μM to 46 nM) was placed in a 96 well polycarbonate plate. 50 μL per well of kinase buffer (100 mM HEPES (pH 7.4), 10 mM MgCl2, 25 mM NaCl, 1 mM DTT, and 0.01% bovine serum albumin (BSA)) containing 2 μM poly(Glu)4Tyr and 10 μM ATP was also added to the plate. To initiate the reaction, 50 μL kinase buffer containing 2 nM JAK3 enzyme was added. Final ATP concentration was 5 μM [γ-^33P] ATP (200 μCi ^33P ATP/μmol ATP (Perkin Elmer, Cambridge, Mass.). After 20 minutes at room temperature (25° C.), the reaction was stopped by adding 50 μL 20% trichloroacetic acid (TCA)/0.4 mM ATP to each well. The entire content of each well was then transferred to a 96 well glass fiber filter plate using a TomTek Cell Harvester. After washing, 60 μL scintillation fluid was added and ^33P incorporation detected using a Perkin Elmer TopCount. After removing mean background values for all of the data points the data was fit using Prism software to obtain a Ki(app). Inhibition of JAK2 was measured as above except that final poly(Glu)4Tyr concentration was 15 μM and final ATP concentration was 12 μM.
Some compounds were screened for their ability to inhibit ROCK using a standard radioactive enzyme assay. Assays were carried out in a solution containing 100 mM HEPES (pH 7.5), 10 mM MgCl2, 25 mM NaCl, 2 mM DTT, and 1.5% DMSO. Final substrate concentrations in the assay were 13 μM [γ-^33P] ATP (25 mCi ^33P ATP/mmol ATP, Perkin Elmer, Cambridge, Mass./Sigma Chemicals, St Louis, Mo.) and 27 μM Myelin Basic Protein (MBP). Final enzyme concentration in the assay was 5 nM ROCK. Assays were carried out at room temperature. 1.5 μl of DMSO stock containing serial dilutions of the compound of the present invention (concentrations ranging from 10 μM to 2.6 nM) was placed in a 96 well plate. 50 μl of Solution 1 (100 mM HEPES (pH 7.5), 10 mM MgCl2, […]) was added to the plate. The reaction was initiated by addition of 50 μl of Solution 2 (100 mM HEPES (pH 7.5), 10 mM MgCl2, 4 mM DTT, […] and 10 nM ROCK). After 2 hours the reaction was quenched with 50 μL of 30% trichloroacetic acid (TCA, Fisher) containing 9 mM ATP. Transfer of 140 μL of the quenched reaction to a glass fiber filter plate (Corning, Cat. No. 3511) was followed by washing 3 times with 5% TCA. 50 μL of Optima Gold scintillation fluid (Perkin Elmer) was added and the plates were counted on a Top Count (Perkin Elmer). After removing mean background values for all of the data points the data was fit using Prism software to obtain a Ki(app).
An assay stock buffer solution was prepared containing all of the reagents listed above with the exception of ATP and the test compound of interest. The assay stock buffer solution (60 μl) was incubated in a 96 well plate with 2 μl of the test compound of interest at final concentrations spanning 0.002 μM to 30 μM at 30° C. for 10 min. Typically, a 12 point titration was conducted by preparing serial dilutions (from 1 mM compound stocks) with DMSO of the test compounds in daughter plates. The reaction was initiated by the addition of 5 μl of ATP (final concentration 200 μM). Rates of reaction were obtained using a Molecular Devices Spectramax plate reader (Sunnyvale, Calif.) over 10 min at 30° C. The Ki values were determined from the rate data as a function of inhibitor concentration using computerized nonlinear regression (Prism 3.0, Graphpad Software, San Diego, Calif.). Aurora-C activity was screened in a similar manner using Aurora-C protein. Aurora-B activity was screened using a radioactive assay, such as described in Examples 1 and 2, but using Aurora-B protein.

[1] = biological target: T2, full length Aurora-A (AA 1-403) (Homo sapiens, UniProt O14965); experiment: Aurora-A inhibition assay, standard coupled enzyme system; details: average Ki if more than one value determined
T2 construct: full length Aurora-A (AA 1-403)
T2 sequence (O14965 1-403): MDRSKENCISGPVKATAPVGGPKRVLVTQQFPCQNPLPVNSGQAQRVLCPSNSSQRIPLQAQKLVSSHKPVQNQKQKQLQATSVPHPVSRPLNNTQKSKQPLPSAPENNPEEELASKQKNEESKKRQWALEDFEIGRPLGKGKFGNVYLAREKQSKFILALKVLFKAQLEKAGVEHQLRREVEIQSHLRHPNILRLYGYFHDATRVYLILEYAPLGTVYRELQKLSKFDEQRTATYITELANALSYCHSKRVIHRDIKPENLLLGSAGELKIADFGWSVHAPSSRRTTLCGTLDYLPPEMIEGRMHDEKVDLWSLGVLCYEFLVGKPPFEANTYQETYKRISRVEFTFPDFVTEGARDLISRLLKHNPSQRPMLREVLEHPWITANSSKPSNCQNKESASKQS

JAK2 = JAK2 (Homo sapiens, UniProt O60674); experiment: JAK2 inhibition assay (radioactive enzyme assay, as for JAK3); details: average Ki if more than one value determined
Sequence of JAK2 (O60674 whole entry, species assumed): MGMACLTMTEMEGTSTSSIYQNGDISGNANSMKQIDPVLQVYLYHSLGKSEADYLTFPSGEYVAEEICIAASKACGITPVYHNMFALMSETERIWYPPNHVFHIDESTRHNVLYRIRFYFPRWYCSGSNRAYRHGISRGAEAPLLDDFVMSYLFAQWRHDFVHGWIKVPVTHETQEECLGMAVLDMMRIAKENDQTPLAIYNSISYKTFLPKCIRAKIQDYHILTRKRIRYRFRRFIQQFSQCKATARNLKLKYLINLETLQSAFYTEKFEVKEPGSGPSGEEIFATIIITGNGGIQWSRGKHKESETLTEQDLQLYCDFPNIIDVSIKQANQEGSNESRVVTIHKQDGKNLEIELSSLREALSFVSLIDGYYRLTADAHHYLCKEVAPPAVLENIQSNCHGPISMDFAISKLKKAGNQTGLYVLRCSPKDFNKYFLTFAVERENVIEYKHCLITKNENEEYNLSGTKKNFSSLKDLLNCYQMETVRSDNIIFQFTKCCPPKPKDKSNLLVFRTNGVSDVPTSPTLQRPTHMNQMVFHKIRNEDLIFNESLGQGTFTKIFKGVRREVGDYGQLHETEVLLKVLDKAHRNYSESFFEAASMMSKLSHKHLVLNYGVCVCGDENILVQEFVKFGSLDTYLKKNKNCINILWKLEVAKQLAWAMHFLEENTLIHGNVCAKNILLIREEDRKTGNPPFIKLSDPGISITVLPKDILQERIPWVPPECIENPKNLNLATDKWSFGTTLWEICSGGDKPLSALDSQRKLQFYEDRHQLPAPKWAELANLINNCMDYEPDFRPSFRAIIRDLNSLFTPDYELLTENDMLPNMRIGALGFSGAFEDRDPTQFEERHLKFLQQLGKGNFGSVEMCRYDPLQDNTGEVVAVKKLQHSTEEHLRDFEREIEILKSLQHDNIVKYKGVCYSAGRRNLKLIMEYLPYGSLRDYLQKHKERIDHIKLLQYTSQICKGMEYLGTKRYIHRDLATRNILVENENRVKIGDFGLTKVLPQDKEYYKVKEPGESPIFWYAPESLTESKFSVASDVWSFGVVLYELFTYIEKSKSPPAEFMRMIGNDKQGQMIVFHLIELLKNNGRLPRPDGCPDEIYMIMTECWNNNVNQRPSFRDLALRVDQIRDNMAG
In short: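 Both kinases: poly(Glu)4Tyr substrate in 100 mM HEPES pH 7.4, 10 mM MgCl2, 1 mM DTT. Run 20 min at 25° C, TCA stop, filter-bound ³³P counted, Ki(app) fitted after background subtraction. JAK3: final [γ-³³P]ATP 5 μM, enzyme added as 2 nM solution. JAK2: final poly(Glu)4Tyr 15 μM, final ATP 12 μM.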

T1 sequence (Q13464 6-553, species assumed): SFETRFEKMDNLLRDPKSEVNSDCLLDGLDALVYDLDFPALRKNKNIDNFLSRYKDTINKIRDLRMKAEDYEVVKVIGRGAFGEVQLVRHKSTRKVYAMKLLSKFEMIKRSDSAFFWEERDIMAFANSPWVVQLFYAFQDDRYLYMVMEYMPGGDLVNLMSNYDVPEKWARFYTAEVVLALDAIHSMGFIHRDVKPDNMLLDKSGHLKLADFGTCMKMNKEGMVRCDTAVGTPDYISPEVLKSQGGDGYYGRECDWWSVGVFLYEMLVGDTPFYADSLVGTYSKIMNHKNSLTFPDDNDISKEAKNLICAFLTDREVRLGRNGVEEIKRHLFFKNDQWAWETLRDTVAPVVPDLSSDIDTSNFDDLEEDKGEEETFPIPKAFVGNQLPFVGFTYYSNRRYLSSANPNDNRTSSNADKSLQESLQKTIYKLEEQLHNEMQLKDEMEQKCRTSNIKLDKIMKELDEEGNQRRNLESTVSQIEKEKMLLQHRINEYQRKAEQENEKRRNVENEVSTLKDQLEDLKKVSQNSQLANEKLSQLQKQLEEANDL

pKi (ROCK I (AA 6-553))	pKi (Aurora-B)	pKi [1]	pKi (JAK2)	SMILES
5.30 to 6.30	5.30 to 6.30	5.30 to 6.30		C[C@H](Nc1nc(-c2c[nH]c3ncc(Cl)cc23)ncc1F)C(=O)NCCc1ccccc1 [Compound 433]
5.30 to 6.30	5.30 to 6.30	5.30 to 6.30		C[C@H](Nc1nc(-c2c[nH]c3ncc(Cl)cc23)ncc1F)C(=O)NCCc1cn(C)cn1 [Compound 434]
5.30 to 6.30	5.30 to 6.30	5.30 to 6.30		C[C@H](Nc1nc(-c2c[nH]c3ncc(Cl)cc23)ncc1F)C(=O)NCCN1CCOCC1 [Compound 435]
5.30 to 6.30	> 6.30	5.30 to 6.30		C[C@H](Nc1nc(-c2c[nH]c3ncc(Cl)cc23)ncc1F)C(=O)NCCN1CCCC1 [Compound 436]
5.30 to 6.30	5.30 to 6.30	5.30 to 6.30		C[C@H](Nc1nc(-c2c[nH]c3ncc(Cl)cc23)ncc1F)C(=O)NCCc1ccccn1 [Compound 438]
5.30 to 6.30	> 6.30	> 6.30		C[C@H](Nc1nc(-c2c[nH]c3ncc(Cl)cc23)ncc1F)C(=O)NCCCN1CCCC1 [Compound 439]
5.30 to 6.30	5.30 to 6.30	5.30 to 6.30		CC(C)OCCCNC(=O)[C@H](C)Nc1nc(-c2c[nH]c3ncc(Cl)cc23)ncc1F [Compound 440]
5.30 to 6.30	5.30 to 6.30	5.30 to 6.30	5.30 to 6.30	C[C@H](Nc1nc(-c2c[nH]c3ncc(Cl)cc23)ncc1F)C(=O)NCCN1CCNC1=O [Compound 441]
5.30 to 6.30	5.30 to 6.30	> 6.30	5.30 to 6.30	C[C@H](Nc1nc(-c2c[nH]c3ncc(Cl)cc23)ncc1F)C(=O)NCCCn1ccnc1 [Compound 442]
5.30 to 6.30	5.30 to 6.30	5.30 to 6.30		C[C@H](Nc1nc(-c2c[nH]c3ncc(Cl)cc23)ncc1F)C(=O)NCC[C@H]1CCCN1C [Compound 448]
5.30 to 6.30	5.30 to 6.30	> 6.30		C[C@H](Nc1nc(-c2c[nH]c3ncc(Cl)cc23)ncc1F)C(=O)NCCc1cccnc1 [Compound 449]

Continued, molecule first:

SMILES	pKi (ROCK I (AA 6-553))	pKi (Aurora-B)	pKi [1]	pKi (JAK2)
C[C@H](Nc1cc(N2CCN(C(=O)OC(C)(C)C)CC2)nc(-c2c[nH]c3ncc(Cl)cc23)n1)C(=O)NCC(F)(F)F [Compound 415]	5.30 to 6.30	> 6.30	> 6.30	
C[C@H](Nc1cc(N2CCNCC2)nc(-c2c[nH]c3ncc(Cl)cc23)n1)C(=O)NCC(F)(F)F [Compound 416]	5.30 to 6.30	5.30 to 6.30	> 6.30	
C[C@H](Nc1cc(NCCO)nc(-c2c[nH]c3ncc(Cl)cc23)n1)C(=O)NCC(F)(F)F [Compound 417]	5.30 to 6.30	> 6.30	> 6.30	
C[C@H](Nc1nc(-c2c[nH]c3ncc(Cl)cc23)ncc1C(F)(F)F)C(=O)NCC(F)(F)F [Compound 418]	5.30 to 6.30	> 6.30	> 6.30	
O=C(CNc1nc(-c2c[nH]c3ncc(Cl)cc23)ncc1C(F)(F)F)NCC(F)(F)F [Compound 421]	5.30 to 6.30	5.30 to 6.30	> 6.30	
C[C@H](Nc1nc(-c2c[nH]c3ncc(Cl)cc23)ncc1[N+](=O)[O-])c1ccc(F)cc1 [Compound 422]	5.30 to 6.30	> 6.30	> 6.30	
C[C@H](Nc1nc(-c2c[nH]c3ncc(Cl)cc23)ncc1N)c1ccc(F)cc1 [Compound 423]	5.30 to 6.30	> 6.30	> 6.30	
C[C@@H](C(=O)NCC(F)(F)F)N(C)c1nc(-c2c[nH]c3ncc(Cl)cc23)ncc1C(F)(F)F [Compound 424]	5.30 to 6.30	> 6.30	> 6.30	
C[C@H](Nc1cc(C(=O)N(C)C)nc(-c2c[nH]c3ncc(Cl)cc23)n1)c1ccc(F)cc1 [Compound 425]	5.30 to 6.30	> 6.30	> 6.30	
C[C@H](Nc1nc(-c2c[nH]c3ncc(Cl)cc23)ncc1F)C(=O)NCCNC(=O)OC(C)(C)C [Compound 426]	5.30 to 6.30	> 6.30	> 6.30	
CCc1cnc(Cl)nc1-c1c[nH]c2ncc(Cl)cc12 [Compound 428]	5.30 to 6.30	5.30 to 6.30	> 6.30	
CNc1nc(-c2c[nH]c3ncc(Cl)cc23)nc(N[C@@H](C)C(=O)NCC(F)(F)F)c1C(C)C [Compound 432]	5.30 to 6.30	5.30 to 6.30	5.30 to 6.30	
C[C@H](Nc1nc(-c2c[nH]c3ncc(Cl)cc23)ncc1F)C(=O)NCCc1c[nH]c2ccccc12 [Compound 437]	5.30 to 6.30	5.30 to 6.30	> 6.30	
C[C@H](Nc1nc(-c2c[nH]c3ncc(Cl)cc23)ncc1F)C(=O)NCCN(C)C(=O)OC(C)(C)C [Compound 451]	5.30 to 6.30	5.30 to 6.30	5.30 to 6.30	
COc1ccccc1OCCNC(=O)[C@H](C)Nc1nc(-c2c[nH]c3ncc(Cl)cc23)ncc1F [Compound 453]	5.30 to 6.30	5.30 to 6.30	5.30 to 6.30	
CN(C)CC[C@H](Nc1nc(-c2c[nH]c3ncc(Cl)cc23)ncc1F)C(=O)N(C)C [Compound 456]	5.30 to 6.30	5.30 to 6.30	> 6.30	

From patent publication US8501446B2 (Vertex Pharmaceuticals Incorporated, priority 2004, dated 2013)
